# According to patent publication US20110070232A1, “Combination Therapy with an Antitumor Alkaloid” (Pharma Mar, S.A., priority 2008, published 2011):
# Where two headings read alike, the source gives them in different places.
# Assays:
# [1] = tested on: AGS human gastric carcinoma cell line; experiment: IC50 determination, MTS assay, 72 h (Example 1); format: cell-based; details: Homo sapiens, 72 hours of drug exposure, read-out: IC50
# Method: (§1) The human gastric carcinoma cell lines selected for this assay were the following: Hs746T, HGC-27, and AGS cell lines. Hs746T and AGS cell lines were grown in Dulbecco's modified Eagle's medium (DMEM) supplemented with 10% Fetal Bovine Serum (FBS), 1.5 g/L sodium bicarbonate, 4.5 g/L glucose and 4 mM L-glutamine. HGC-27 cell line was grown in Iscove's modified Dulbecco's medium (IMDM) supplemented with 20% FBS and 2 mM L-glutamine.
# (§2) The day before plating, the cells were fed with fresh, complete growth media. On the harvest (plating) day, cells were counted by Trypan Blue exclusion staining method.
# (§3) Cells were harvested and seeded in 96 well microtiter plates at 10,000 cells density in 150 μL of media and incubated for 24 hours to allow the cells to attach before drug addition. To collect reference data, the MTS assay was done on untreated cells at time 0 (after incubation of cells for 24 hours).
# (§4) The cytotoxic effect was measured by the MTS Assay (Tetrazolium), which is a colorimetric method for determining the number of viable cells. After the incubation period (24 hours for the Day 0 plate and 72 hours for the Test and Control plates), 25 μL of MTS+PMS solution was added to each microtiter well and incubated for 4 hours at 37° C. Plates were then removed from incubator and placed on plate shaker for 5 minutes (covered with aluminum foil for protection from light). Optical densities were read at 490 nm on spectrophotometer plate reader.
# (§5) IC50 values were calculated from an average of two to four assays for each of the test agents.
# [2] = tested on: HGC-27 human gastric carcinoma cell line; experiment: IC50 determination, MTS assay, 72 h (Example 1); format: cell-based; details: Homo sapiens, 72 hours of drug exposure, read-out: IC50
# Method: as §1, §2, §3, §4, §5
# [3] = tested on: Hs746T human gastric carcinoma cell line; experiment: IC50 determination, MTS assay, 72 h (Example 1); format: cell-based; details: Homo sapiens, 72 hours of drug exposure, read-out: IC50
# Method: as §1, §2, §3, §4, §5
# Hs746T tumors = format: in vivo, mice; details: for % T/C on day 14 / % T/C on day 19 / % T/C on day 22 / % T/C on day 26 / % T/C on day 29 / % T/C on day 32 / % T/C on day 39: PM00104 0.90 IV, DPI 14, 21, 28
# Method: Female athymic nude mice (Harlan Sprague Dawley, Madison, Wis.) were utilized for all experiments. Animals were housed in ventilated rack caging with food and water ad libitum. The mice were acclimated for at least 5 days prior to tumor implantation with a tumor cell suspension.
# The tumor model used in these studies was Hs746T cell line, which was obtained from the ATCC (Manassas, Va.).
# Treatments were initiated on DPI 14.
# (§6) Tumor size measurements were recorded twice weekly from the treatment initiation until the termination of the study.
# (§7) Mean, standard deviation and standard error of the mean were determined for tumor volume for all animal groups at all assessments. Student's t test was performed on tumor volumes at each measurement day, including at the end of the study, to determine whether there were any statistically significant differences between combination treatment groups and single monotherapy treatment groups.
# MRI-H-254 tumors = format: in vivo, mice
# Method: Female athymic nude mice (Harlan Sprague Dawley, Madison, Wis.) were utilized for all experiments. Animals were housed in ventilated rack caging with food and water ad libitum. The mice were acclimated for at least 5 days prior to tumor implantation with tumor fragments.
# Treatments were initiated on DPI 20.
# as §6, §7
# [4] = docetaxel 8 IP, oxaliplatin 4 IP mg/kg/day (G4, G6, G8, G10)
# [5] = docetaxel 16 IP, oxaliplatin 8 IP mg/kg/day (G2, G3, G5, G7, G9)
# [6] = PM00104 0.90 IV, docetaxel 8 IP, oxaliplatin 4 IP mg/kg/day (G4, G6, G8, G10), DPI 20, 27, 34
# [7] = PM00104 0.90 IV, docetaxel 16 IP, oxaliplatin 8 IP mg/kg/day (G2, G3, G5, G7, G9), DPI 20, 27, 34
compound,measurement,setting,value
"CC(=O)O[C@@]12CO[C@@H]1C[C@H](O)[C@@]1(C)C(=O)[C@H](O)C3=C(C)[C@@H](OC(=O)[C@H](O)[C@@H](NC(=O)OC(C)(C)C)c4ccccc4)C[C@@](O)([C@@H](OC(=O)c4ccccc4)[C@H]21)C3(C)C [Docetaxel, docetaxel]",IC50,[1],1.99 µg/mL
same,IC50,[2],6.54 µg/mL
same,IC50,[3],44.2 µg/mL
same,% T/C on day 14,Hs746T tumors; [4],100.8%
same,% T/C on day 19,Hs746T tumors; [4],49.0%
same,% T/C on day 22,Hs746T tumors; [4],41.6%
same,% T/C on day 26,Hs746T tumors; [4],32.5%
same,% T/C on day 29,Hs746T tumors; [4],29.4%
same,% T/C on day 32,Hs746T tumors; [4],39.4%
same,% T/C on day 39,Hs746T tumors; [4],55.1%
same,% T/C on day 14,Hs746T tumors; [5],100.3%
same,% T/C on day 19,Hs746T tumors; [5],33.6%
same,% T/C on day 22,Hs746T tumors; [5],21.3%
same,% T/C on day 26,Hs746T tumors; [5],7.2%
same,% T/C on day 29,Hs746T tumors; [5],3.5%
same,% T/C on day 32,Hs746T tumors; [5],1.5%
same,% T/C on day 39,Hs746T tumors; [5],−0.6%
same,% Inhibition,"Hs746T tumors; day 14, PM00104 0.9 and docetaxel 8 mg/kg/day",−0.8%
same,% Inhibition,"Hs746T tumors; day 14, PM00104 0.9 and docetaxel 16 mg/kg/day",−0.3%
same,% Inhibition,"Hs746T tumors; day 19, PM00104 0.9 and docetaxel 8 mg/kg/day",51.0%
same,% Inhibition,"Hs746T tumors; day 19, PM00104 0.9 and docetaxel 16 mg/kg/day",66.4%
same,% Inhibition,"Hs746T tumors; day 22, PM00104 0.9 and docetaxel 8 mg/kg/day",58.4%
same,% Inhibition,"Hs746T tumors; day 22, PM00104 0.9 and docetaxel 16 mg/kg/day",78.7%
same,% Inhibition,"Hs746T tumors; day 26, PM00104 0.9 and docetaxel 8 mg/kg/day",67.5%
same,% Inhibition,"Hs746T tumors; day 26, PM00104 0.9 and docetaxel 16 mg/kg/day",92.8%
same,% Inhibition,"Hs746T tumors; day 29, PM00104 0.9 and docetaxel 8 mg/kg/day",70.6%
same,% Inhibition,"Hs746T tumors; day 29, PM00104 0.9 and docetaxel 16 mg/kg/day",96.5%
same,% Inhibition,"Hs746T tumors; day 32, PM00104 0.9 and docetaxel 8 mg/kg/day",60.6%
same,% Inhibition,"Hs746T tumors; day 32, PM00104 0.9 and docetaxel 16 mg/kg/day",98.5%
same,% Inhibition,"Hs746T tumors; day 39, PM00104 0.9 and docetaxel 8 mg/kg/day",44.9%
same,% Inhibition,"Hs746T tumors; day 39, PM00104 0.9 and docetaxel 16 mg/kg/day",100.6%
same,% T/C on day 20,MRI-H-254 tumors; [6],97.7%
same,% T/C on day 23,MRI-H-254 tumors; [6],122.8%
same,% T/C on day 27,MRI-H-254 tumors; [6],93.1%
same,% T/C on day 30,MRI-H-254 tumors; [6],102.6%
same,% T/C on day 33,MRI-H-254 tumors; [6],114.1%
same,% T/C on day 36,MRI-H-254 tumors; [6],119.2%
same,% T/C on day 40,MRI-H-254 tumors; [6],120.1%
same,% T/C on day 48,MRI-H-254 tumors; [6],97.3%
same,% T/C on day 20,MRI-H-254 tumors; [7],101.4%
same,% T/C on day 23,MRI-H-254 tumors; [7],115.4%
same,% T/C on day 27,MRI-H-254 tumors; [7],90.9%
same,% T/C on day 33,MRI-H-254 tumors; [7],115.8%
same,% T/C on day 36,MRI-H-254 tumors; [7],108.4%
same,% T/C on day 40,MRI-H-254 tumors; [7],100.4%
same,% T/C on day 48,MRI-H-254 tumors; [7],76.7%
same,% Inhibition,"MRI-H-254 tumors; day 20, PM00104 0.9 and docetaxel 8 mg/kg/day",2.3%
same,% Inhibition,"MRI-H-254 tumors; day 20, PM00104 0.9 and docetaxel 16 mg/kg/day",−1.4%
same,% Inhibition,"MRI-H-254 tumors; day 23, PM00104 0.9 and docetaxel 8 mg/kg/day",−22.8%
same,% Inhibition,"MRI-H-254 tumors; day 23, PM00104 0.9 and docetaxel 16 mg/kg/day",−15.4%
same,% Inhibition,"MRI-H-254 tumors; day 27, PM00104 0.9 and docetaxel 8 mg/kg/day",6.9%
same,% Inhibition,"MRI-H-254 tumors; day 27, PM00104 0.9 and docetaxel 16 mg/kg/day",9.1%
same,% Inhibition,"MRI-H-254 tumors; day 30, PM00104 0.9 and docetaxel 8 mg/kg/day",−2.6%
same,% Inhibition,"MRI-H-254 tumors; day 30, PM00104 0.9 and docetaxel 16 mg/kg/day",−17.1%
same,% Inhibition,"MRI-H-254 tumors; day 33, PM00104 0.9 and docetaxel 8 mg/kg/day",−14.1%
same,% Inhibition,"MRI-H-254 tumors; day 33, PM00104 0.9 and docetaxel 16 mg/kg/day",−15.8%
same,% Inhibition,"MRI-H-254 tumors; day 36, PM00104 0.9 and docetaxel 8 mg/kg/day",−19.2%
same,% Inhibition,"MRI-H-254 tumors; day 36, PM00104 0.9 and docetaxel 16 mg/kg/day",−8.4%
same,% Inhibition,"MRI-H-254 tumors; day 40, PM00104 0.9 and docetaxel 8 mg/kg/day",−20.1%
same,% Inhibition,"MRI-H-254 tumors; day 40, PM00104 0.9 and docetaxel 16 mg/kg/day",−0.4%
same,% Inhibition,"MRI-H-254 tumors; day 48, PM00104 0.9 and docetaxel 8 mg/kg/day",2.7%
same,% Inhibition,"MRI-H-254 tumors; day 48, PM00104 0.9 and docetaxel 16 mg/kg/day",23.3%
